Laboratory results taken from ChEMBL document CHEMBL1649399, “Identification of a reduction product of aristolochic acid: implications for the metabolic activation of carcinogenic aristolochic acid” (J Nat Prod, 2010).
Active and inactive are the calls of the source. No cut-off for these calls is given here.

system: Nucleic Acid; assay: Binding affinity to DNA assessed as DNA adduct formation; assay type: nucleic-acid assay

| Compound | Activity |
| --- | --- |
| COc1cccc2c1c(Nc1nc3c(ncn3[C@H]3C[C@H](O)[C@@H](CO)O3)c(=O)[nH]1)c1c3c(cc4c(c32)OCO4)C(=O)N1 | Active |
| COc1cccc2c1cc1c3c(cc4c(c32)OCO4)C(=O)N1 | Active |
| CC(=O)Nc1ccc2c(c1)Cc1ccccc1-2 | Active |
| O=C1Nc2cc3ccccc3c3c4c(cc1c23)OCO4 | Active |
| O=C1Nc2c(Nc3nc4c(ncn4[C@H]4C[C@H](O)[C@@H](CO)O4)c(=O)[nH]3)c3ccccc3c3c4c(cc1c23)OCO4 | Active |
| O=C1Nc2c(/N=c3\[nH]cnc4c3ncn4[C@H]3C[C@H](O)[C@@H](CO)O3)c3ccccc3c3c4c(cc1c23)OCO4 | Active |
| COc1cccc2c1c(/N=c1\[nH]cnc3c1ncn3[C@H]1C[C@H](O)[C@@H](CO)O1)c1c3c(cc4c(c32)OCO4)C(=O)N1 | Active |
